According to PubChem BioAssay AID248 (DTP/NCI, 2004):
Where “and” joins values, the source holds several entries; their conditions need not be identical. Identical values can stand only once. Inconclusive results and toxic doses are left out. Cut-off read from the data, not from the text of the source: active = T/C of 150% or more; inactive = T/C below 125%.

System: L1210 leukemia ip in BDF1 mice, survival T/C
Assay: NCI In Vivo Anticancer Drug Screen. Data for tumor model L1210 Leukemia (intraperitoneal) in B6D2F1 (BDF1) mice
Settings: endpoint: mean survival time, higher = longer survival
Method in brief: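 Transplanted-tumor mice were given test agent; controls received vehicle only. Survival readings from the two groups were divided (treated over control).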

[1] = dose: 100.0 mg/kg/injection, schedule: Q01DX001 (ip), vehicle: carboxymethylcellulose (CMC)
[2] = dose: 200.0 mg/kg/injection, schedule: Q01DX001 (ip), vehicle: carboxymethylcellulose (CMC)
[3] = dose: 400.0 mg/kg/injection, schedule: Q01DX001 (ip), vehicle: carboxymethylcellulose (CMC)
[4] = dose: 100.0 mg/kg/injection, schedule: Q01DX001 (ip), vehicle: saline
[5] = dose: 100.0 mg/kg/injection, schedule: Q01DX009 (ip), vehicle: saline
[6] = dose: 200.0 mg/kg/injection, schedule: Q01DX001 (ip), vehicle: saline
[7] = dose: 200.0 mg/kg/injection, schedule: Q01DX009 (ip), vehicle: saline
[8] = dose: 400.0 mg/kg/injection, schedule: Q01DX001 (ip), vehicle: saline
[9] = dose: 50.0 mg/kg/injection, schedule: Q01DX001 (ip), vehicle: carboxymethylcellulose (CMC)
[10] = dose: 100.0 mg/kg/injection, schedule: Q04DX003 (ip), vehicle: Klucel (hydroxypropylcellulose) (HPC)
[11] = dose: 200.0 mg/kg/injection, schedule: Q04DX003 (ip), vehicle: Klucel (hydroxypropylcellulose) (HPC)
[12] = dose: 400.0 mg/kg/injection, schedule: Q04DX003 (ip), vehicle: Klucel (hydroxypropylcellulose) (HPC)
[13] = dose: 100.0 mg/kg/injection, schedule: Q04DX003 (ip), vehicle: saline with Tween-80
[14] = dose: 200.0 mg/kg/injection, schedule: Q04DX003 (ip), vehicle: saline with Tween-80
[15] = dose: 400.0 mg/kg/injection, schedule: Q04DX003 (ip), vehicle: saline with Tween-80
[16] = dose: 100.0 mg/kg/injection, schedule: Q01DX009 (ip), vehicle: Klucel (hydroxypropylcellulose) (HPC)
[17] = dose: 200.0 mg/kg/injection, schedule: Q01DX009 (ip), vehicle: Klucel (hydroxypropylcellulose) (HPC)
[18] = dose: 400.0 mg/kg/injection, schedule: Q01DX009 (ip), vehicle: saline
[19] = dose: 400.0 mg/kg/injection, schedule: Q01DX009 (ip), vehicle: Klucel (hydroxypropylcellulose) (HPC)
[20] = dose: 100.0 mg/kg/injection, schedule: Q01DX009 (ip), vehicle: saline with Tween-80
[21] = dose: 200.0 mg/kg/injection, schedule: Q01DX009 (ip), vehicle: saline with Tween-80
[22] = dose: 400.0 mg/kg/injection, schedule: Q01DX009 (ip), vehicle: saline with Tween-80

Measured: T/C

CNC(=O)Oc1ccc(C2CCCCC2)cc1
inactive: [1] 99 % of control | dose: 100.0 mg/kg/injection, schedule: Q01DX009 (ip), vehicle: carboxymethylcellulose (CMC) 93 % of control and 103 % of control | dose: 100.0 mg/kg/injection, schedule: Q04DX002 (ip), vehicle: Klucel (hydroxypropylcellulose) (HPC) 97 % of control | dose: 100.0 mg/kg/injection, schedule: Q04DX002 (ip), vehicle: carboxymethylcellulose (CMC) 95 % of control and 101 % of control | dose: 100.0 mg/kg/injection, schedule: Q04DX003 (ip), vehicle: carboxymethylcellulose (CMC) 94 % of control | [2] 90 % of control | dose: 200.0 mg/kg/injection, schedule: Q01DX009 (ip), vehicle: carboxymethylcellulose (CMC) 93 % of control and 95 % of control | dose: 200.0 mg/kg/injection, schedule: Q04DX002 (ip), vehicle: Klucel (hydroxypropylcellulose) (HPC) 97 % of control | dose: 200.0 mg/kg/injection, schedule: Q04DX002 (ip), vehicle: carboxymethylcellulose (CMC) 101 % of control and 108 % of control | dose: 200.0 mg/kg/injection, schedule: Q04DX003 (ip), vehicle: carboxymethylcellulose (CMC) 94 % of control | [3] 92 % of control | dose: 400.0 mg/kg/injection, schedule: Q01DX009 (ip), vehicle: carboxymethylcellulose (CMC) 98 % of control and 100 % of control | dose: 400.0 mg/kg/injection, schedule: Q04DX002 (ip), vehicle: Klucel (hydroxypropylcellulose) (HPC) 100 % of control | dose: 400.0 mg/kg/injection, schedule: Q04DX002 (ip), vehicle: carboxymethylcellulose (CMC) 95 % of control and 101 % of control | dose: 400.0 mg/kg/injection, schedule: Q04DX003 (ip), vehicle: carboxymethylcellulose (CMC) 100 % of control

COc1ccc2c(c1O)C13CCN(C)C(C2)C1CCC1(C3)OCCO1 (stereo unspecified)
inactive: [4] 95 % of control | [5] 100 % of control | [6] 104 % of control | [7] 103 % of control | [8] 98 % of control

Cc1ccccc1N=Nc1ccc(N(C)C)cc1
inactive: [9] 93 % of control | [1] 107 % of control | [10] 95 % of control | [2] 86 % of control | [11] 95 % of control | [3] 98 % of control | [12] 91 % of control

Cc1ccc(-c2nnc3n2C(C)(C)N=C(N)N3)cc1
inactive: [13] 105 % of control | [14] 91 % of control | [15] 101 % of control

Cc1c2c(cc3c4ccccc4n(CC4CO4)c13)C(c1ccc(Cl)cc1)=NCC2 (stereo unspecified)
inactive: dose: 37.5 mg/kg/injection, schedule: Q04DX003 (ip), vehicle: water 104 % of control | dose: 75.0 mg/kg/injection, schedule: Q04DX003 (ip), vehicle: water 100 % of control | dose: 150.0 mg/kg/injection, schedule: Q04DX003 (ip), vehicle: water 92 % of control | dose: 300.0 mg/kg/injection, schedule: Q04DX003 (ip), vehicle: water 96 % of control

O=c1[nH]c2cnccc2c(=O)n1OS(=O)(=O)c1ccccc1
inactive: dose: 50.0 mg/kg/injection, schedule: Q01DX009 (ip), vehicle: Klucel (hydroxypropylcellulose) (HPC) 90 % of control | [16] 90 % of control | [17] 97 % of control

CSc1nc2ccccc2s1
inactive: [16] 97 % of control | [10] 105 % of control | [17] 100 % of control | [11] 104 % of control | [12] 95 % of control

CCOC(=O)c1c[nH]c2ccc(OC)cc2c1=O
inactive: [5] 96 % of control | dose: 100.0 mg/kg/injection, schedule: Q04DX003 (ip), vehicle: saline 98 % of control | [7] 98 % of control | dose: 200.0 mg/kg/injection, schedule: Q04DX003 (ip), vehicle: saline 102 % of control | [18] 96 % of control | dose: 400.0 mg/kg/injection, schedule: Q04DX003 (ip), vehicle: saline 100 % of control

CCCCCCCCC(=O)N1CCN(C(=O)CCCCCCCC)C1
inactive: dose: 30.0 mg/kg/injection, schedule: Q01DX001 (ip), vehicle: saline 96 % of control | [4] 96 % of control | dose: 300.0 mg/kg/injection, schedule: Q01DX001 (ip), vehicle: saline 91 % of control

ClC1(Cl)CC2CC1C1C3CC(C4OC34)C21 (stereo unspecified)
inactive: [9] 94 % of control and 119 % of control | [1] 94 % of control | [2] 105 % of control | [3] 98 % of control

Cc1cc(C(=O)CBr)c(CN2C(=O)c3ccccc3C2=O)c(=O)n1C
inactive: dose: 100.0 mg/kg/injection, schedule: Q01DX001 (ip), vehicle: saline with Tween-80 101 % of control

COC(=O)Cc1cc(OC)c(OC)cc1I
inactive: [4] 105 % of control | [5] 96 % of control | [6] 100 % of control | [7] 102 % of control | [8] 102 % of control | [18] 102 % of control

CC(C)C1CCC(C)C(OB(OC2CC(C(C)C)CCC2C)OC2CC(C(C)C)CCC2C)C1 (stereo unspecified)
inactive: [10] 88 % of control | [11] 99 % of control | [12] 88 % of control

CCOC(=O)c1cc(Cl)nc2ccc3ccccc3c12
inactive: [16] 101 % of control | [17] 97 % of control | [19] 96 % of control

O=C1OC(=O)C2CC(Br)C(Br)CC12 (stereo unspecified)
inactive: [20] 92 % of control | [13] 94 % of control and 102 % of control | [21] 89 % of control | [14] 94 % of control | [22] 89 % of control | [15] 91 % of control and 93 % of control

Cc1c[n+]([O-])ccc1N=Nc1ccc(N(C)C)cc1
inactive: dose: 25.0 mg/kg/injection, schedule: Q04DX003 (ip), vehicle: Klucel (hydroxypropylcellulose) (HPC) 104 % of control | dose: 50.0 mg/kg/injection, schedule: Q04DX003 (ip), vehicle: Klucel (hydroxypropylcellulose) (HPC) 110 % of control | [10] 106 % of control and 107 % of control

Cc1ccc(Cl)c(NC(=O)Nc2ccccc2F)c1
inactive: [16] 97 % of control | [17] 100 % of control | [19] 103 % of control

Cc1cccc2c1/C(=N\Nc1ccc([N+](=O)[O-])cc1[N+](=O)[O-])CC(C)(C)C2
inactive: [20] 104 % of control | [21] 100 % of control | [22] 100 % of control

CC1CN(C=O)CCN1C=O (stereo unspecified)
inactive: [4] 98 % of control | [6] 98 % of control | [8] 101 % of control

Oc1ccc(Br)cc1/C=N/N1CCN(/N=C/c2cc(Br)ccc2O)CC1
inactive: [4] 96 % of control | [6] 92 % of control | [8] 90 % of control

CC(C)CC(Br)C(=O)NCC(=O)NC(Cc1ccccc1)C(=O)O (stereo unspecified)
inactive: [20] 96 % of control | [21] 93 % of control

C/C=C(\Br)C(=O)O
inactive: dose: 100.0 mg/kg/injection, schedule: Q04DX002 (ip), vehicle: other 104 % of control | [13] 92 % of control | dose: 200.0 mg/kg/injection, schedule: Q04DX002 (ip), vehicle: other 104 % of control

N#C/C(=N\N=Nc1ccccc1)c1cccc2ccccc12
inactive: dose: 100.0 mg/kg/injection, schedule: Q01DX009 (ip), vehicle: gum acacia 94 % of control | dose: 200.0 mg/kg/injection, schedule: Q01DX009 (ip), vehicle: gum acacia 91 % of control
